For this experiment, the target named is T1, VEGFR2 (Homo sapiens, UniProt P35968).
T1 construct: gene KDR; monomeric recombinant form of the extracellular portion of VEGFR2 fused to Fc
The experiment can be described thus: SPR (BIAcore X100), steady-state Scatchard analysis; supported by VEGF/VEGFR2 ELISA displacement (IC50 […]). Type of experiment: binding. (In SPR one partner is held on a chip, and binding of the other changes the refractive index at the surface.)

Kd data for 1 compound are collected here from publication PMC9293752, “Cholenic acid derivative UniPR1331 impairs tumor angiogenesis via blockade of VEGF/VEGFR2 in addition to Eph/ephrin” (Cancer Gene Therapy, 2021).

The Kd is a measure of binding affinity in units of concentration. Higher therefore signals weaker binding.

T1 sequence (P35968 20-764 limits assumed): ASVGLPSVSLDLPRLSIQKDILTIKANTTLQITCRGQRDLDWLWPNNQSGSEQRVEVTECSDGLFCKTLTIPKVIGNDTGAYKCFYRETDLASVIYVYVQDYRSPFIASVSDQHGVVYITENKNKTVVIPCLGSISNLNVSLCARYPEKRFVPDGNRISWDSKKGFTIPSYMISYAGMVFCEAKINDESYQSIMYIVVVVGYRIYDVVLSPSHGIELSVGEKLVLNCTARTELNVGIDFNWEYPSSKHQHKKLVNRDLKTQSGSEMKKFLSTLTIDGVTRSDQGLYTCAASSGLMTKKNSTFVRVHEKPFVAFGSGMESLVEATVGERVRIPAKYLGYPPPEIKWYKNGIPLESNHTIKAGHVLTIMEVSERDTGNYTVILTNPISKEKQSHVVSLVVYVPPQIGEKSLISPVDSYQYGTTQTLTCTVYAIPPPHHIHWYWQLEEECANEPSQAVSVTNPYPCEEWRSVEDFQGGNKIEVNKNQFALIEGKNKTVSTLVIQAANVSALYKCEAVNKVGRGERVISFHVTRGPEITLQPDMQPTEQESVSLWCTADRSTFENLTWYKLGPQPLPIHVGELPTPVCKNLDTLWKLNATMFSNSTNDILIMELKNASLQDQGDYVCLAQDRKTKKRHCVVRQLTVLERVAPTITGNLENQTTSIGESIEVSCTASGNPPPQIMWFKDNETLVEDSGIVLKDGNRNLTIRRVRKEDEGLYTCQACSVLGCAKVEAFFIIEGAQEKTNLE

In turn, `C[C@H](CCC(=O)N[C@@H](Cc1c[nH]c2ccccc12)C(=O)O)[C@H]1CC[C@H]2[C@@H]3CC=C4C[C@@H](O)CC[C@]4(C)[C@H]3CC[C@]12C` [UniPR1331] showed a Kd of 62.2 ± 2.1 µM.
